Patent US12084451B2, “Compositions and methods for reducing tactile dysfunction, anxiety, and social impairment” (President and Fellows of Harvard College, priority 2018, dated 2024)

Biological target: hGABAA α2β3γ2 (Homo sapiens, UniProt P18507+P28472+P47869)
Test: hGABAA IonFlux HT PAM Assay, α2β3γ2
Type: cell-based
Excerpt: Ligand-gated ion channels targeted were hGABAA α1β3γ2 and hGABAA α2β3γ2.
Electrophysiological assays conducted to profile nine (9) compounds for activities on the on channel targets listed above for Positive Allosteric Modulator (PAM) activities using the IonFlux HT electrophysiological platform.
The parameters measured are described in the Data Analysis section. […] Open circles represent data that has been excluded from the curve fitting. Where no curve fit was possible, n/c (not calculable) is listed.
All wells included a final DMSO concentration of 0.33% including all control wells.
All recordings were obtained from a holding potential of −60 mV. The compound addition sequence that was used for all additions was the same for all assays. […] The process was repeated with the next ascending concentration of test compound (FIG. 1).
All data were first exported to an Excel compatible data file and then analyzed using Graph Pad Prism software.

Chain of hGABAA α2β3γ2 (P47869 29-451): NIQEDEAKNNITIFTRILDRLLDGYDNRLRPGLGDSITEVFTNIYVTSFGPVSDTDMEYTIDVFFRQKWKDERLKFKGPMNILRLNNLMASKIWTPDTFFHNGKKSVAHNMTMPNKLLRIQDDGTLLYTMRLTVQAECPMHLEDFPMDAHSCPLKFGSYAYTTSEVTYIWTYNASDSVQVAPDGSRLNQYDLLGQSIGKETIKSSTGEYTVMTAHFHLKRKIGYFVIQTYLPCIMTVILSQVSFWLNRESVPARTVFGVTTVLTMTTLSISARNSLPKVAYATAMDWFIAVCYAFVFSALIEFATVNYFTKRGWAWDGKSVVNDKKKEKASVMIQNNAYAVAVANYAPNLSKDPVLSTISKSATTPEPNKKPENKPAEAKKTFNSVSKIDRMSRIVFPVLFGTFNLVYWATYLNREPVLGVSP
Chain of hGABAA α2β3γ2 (P28472 26-473): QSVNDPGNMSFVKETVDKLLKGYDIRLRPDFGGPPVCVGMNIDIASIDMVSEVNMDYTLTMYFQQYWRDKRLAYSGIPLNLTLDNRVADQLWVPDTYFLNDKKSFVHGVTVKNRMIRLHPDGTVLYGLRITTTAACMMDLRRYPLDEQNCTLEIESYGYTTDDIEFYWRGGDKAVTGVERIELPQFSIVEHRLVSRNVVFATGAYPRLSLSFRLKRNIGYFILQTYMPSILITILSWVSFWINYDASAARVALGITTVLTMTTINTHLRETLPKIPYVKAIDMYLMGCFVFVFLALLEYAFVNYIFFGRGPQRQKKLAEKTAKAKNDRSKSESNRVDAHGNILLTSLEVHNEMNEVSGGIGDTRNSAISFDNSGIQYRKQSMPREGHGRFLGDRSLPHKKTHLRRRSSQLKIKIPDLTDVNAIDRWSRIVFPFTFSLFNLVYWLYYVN
Chain of hGABAA α2β3γ2 (P18507 40-475): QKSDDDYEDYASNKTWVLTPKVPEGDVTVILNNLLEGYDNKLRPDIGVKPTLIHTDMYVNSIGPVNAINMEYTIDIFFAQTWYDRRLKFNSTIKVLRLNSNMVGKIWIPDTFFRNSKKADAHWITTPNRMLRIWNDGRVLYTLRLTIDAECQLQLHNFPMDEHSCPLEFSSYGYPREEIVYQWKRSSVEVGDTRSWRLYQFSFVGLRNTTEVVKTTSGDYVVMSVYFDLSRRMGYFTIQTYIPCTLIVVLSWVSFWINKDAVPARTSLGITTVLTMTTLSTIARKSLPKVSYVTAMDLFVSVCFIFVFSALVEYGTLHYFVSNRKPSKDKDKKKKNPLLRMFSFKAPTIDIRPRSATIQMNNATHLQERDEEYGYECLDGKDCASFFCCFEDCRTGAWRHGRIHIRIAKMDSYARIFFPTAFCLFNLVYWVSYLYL

O=C(O)C1=CCNCC1 [Isoguvacine]
(%) Control mean (0.001 μM + EC20 GABA): 95.4 % Control
(%) Control n1 (0.001 μM + EC20 GABA): 94.5 % Control
(%) Control n2 (0.001 μM + EC20 GABA): 96.3 % Control
(%) Control mean (0.01 μM + EC20 GABA): 93.2 % Control
(%) Control n1 (0.01 μM + EC20 GABA): 90.4 % Control
(%) Control n2 (0.01 μM + EC20 GABA): 96.0 % Control
(%) Control mean (0.1 μM + EC20 GABA): 88.9 % Control
(%) Control n1 (0.1 μM + EC20 GABA): 85.9 % Control
(%) Control n2 (0.1 μM + EC20 GABA): 91.8 % Control
(%) Control mean (1 μM + EC20 GABA): 92.3 % Control
(%) Control n1 (1 μM + EC20 GABA): 95.4 % Control
(%) Control n2 (1 μM + EC20 GABA): 89.3 % Control
(%) Control mean (10 μM + EC20 GABA): 45.7 % Control
(%) Control n1 (10 μM + EC20 GABA): 55.0 % Control
(%) Control n2 (10 μM + EC20 GABA): 36.4 % Control
(%) Control mean (100 μM + EC20 GABA): 6.9 % Control
(%) Control n1 (100 μM + EC20 GABA): 8.4 % Control
(%) Control n2 (100 μM + EC20 GABA): 5.3 % Control
Mean Maximal Effect (% of Control) (normalized to baseline peak current induced by EC20 GABA (0.8 μM) for 2 seconds): 95 % of Control
Estimated EC50 (positive modulation of EC20 GABA current): n/c*
